Molecule `Nc1ccccc1Cc1n[nH]c(Cl)n1` showed a melting point of 162 to 165 °C.

Molecule `CN(C)c1ncnc2[nH]c(-c3ccc(Cn4ccnc4)cc3)cc12` had a melting point of 273 to 275 °C.

For `Brc1ccc2c(c1)CCC=C2n1ccnc1`, the melting point was 58 to 64 °C.

`CN(C(=O)CCl)C1(c2ccccc2)Cc2ccccc2C1` came in with a melting point of 134 to 137 °C.

On to `COc1cc2c(-c3cc4cc(F)cnc4[nH]3)cn(CCN3CCOCC3)c2cc1OC`, for which the melting point was in the range of 205 to 210 °C.

Molecule `O=C(c1ccc([N+](=O)[O-])cc1)N1CC2CC2(c2ccc(Cl)cc2)C1` (stereo not drawn) had a melting point of 177 to 180 °C.

Take `O=C(O)c1ccc(NCc2ccc(OCc3ccccc3)cc2)cc1`: the melting point was 206 to 208 °C.

`CCCCCNC(=O)N(C)c1cccc(-c2ccc(/C=C(\OCC)C(=O)O)cc2)n1` had a melting point of 162 °C.

In the case of `COC(=O)CS(=O)(=O)Nc1ccc(F)c(C(F)(F)F)c1`, the melting point lay within 111 to 112 °C.

In the case of `CN(C(=O)Nc1ccc2ccccc2c1)c1cccc(-c2ccc(CC(Nc3ccccc3C(=O)c3ccccc3)C(=O)O)cc2)c1` (stereo not drawn), the melting point was determined as 125 °C.

`OCC1CC2CC2N1c1cncc(Br)c1` (stereo not drawn) showed a melting point of 90.4 to 93.5 °C.

In turn, `CCOC(=O)c1cnc2n(c1=O)C(C)CC=C2N(C)c1ccccc1` (stereo not drawn) had a melting point of 140 to 142 °C.

For `Cc1[nH]c(CN(C)C)c(C)c1-c1ccnc(Nc2ccc(F)cc2)n1`, the melting point was in the range of 88.4 to 91.6 °C.

On to `COC(=O)c1ccc(C(=O)NS(=O)(=O)c2ccccc2)cc1`, for which the melting point is 267 to 270 °C.

`CC(=O)N1c2ccc(N(C)C)cc2Sc2cc(N(C)C)ccc21` returned a melting point of 137 °C.

Molecule `CC(=O)NCc1ccc(Nc2nccc(-c3sc(-c4cccnc4)nc3C)n2)cc1` showed a melting point of 199 to 201 °C.

On to `CN(C)Cc1ccc(CSCCNC(=C[N+](=O)[O-])NCC(O)c2ccccc2)o1` (stereo not drawn), for which the melting point lay within 115 to 116 °C.

In turn, `CCOc1nc(OCC)nc(-n2nc(SC)nc2N)n1` gave a melting point of 201 °C.

`CS(=O)CC(=O)c1cc(-c2ccccc2)on1` (stereo not drawn): the melting point lay within 164 to 166 °C.

`O=C1NC(Cc2ccccc2)C(=O)N/C1=C\c1ccc(O)cn1` (stereo not drawn) yielded a melting point of 251 to 252 °C.

Turning to `Cc1cc(NC2CCCCC2)c2[nH]ncc2n1`, the melting point was 287 to 289 °C.

The molecule `CN(C)S(=O)(=O)n1c(C(=S)NCO)nc2cc(Cl)c(Cl)cc21` registered a melting point of 140 to 142 °C.

Consider `CCC(=O)CCc1ccc(OC)c(S(N)(=O)=O)c1`, for which the melting point was 135 to 138 °C.

`CCCCCCCCCCCC1Cc2cc(C(=O)O)ccc2N1C` (racemic) had a melting point of 102 to 104 °C.

The molecule `O=C1Nc2ccc(Cl)cc2C(C#Cc2ccccc2)(C(F)(F)Cl)O1` (racemic) gave a melting point of 154 to 155 °C.

`Cc1cc(CNC(=O)c2ccnc(N3CCN(Cc4ccc(F)cc4)C3=O)c2)nn1C` gave a melting point of 150 to 152 °C.

Turning to `Cc1ccc(C(=O)Nc2ccc(N3CCOCC3)c(C(F)(F)F)c2)cc1Nc1nccc(-c2cccnc2)n1`, the melting point lay in the range of 216 to 218 °C.

Consider `O=Cc1ccc2cc3ccccc3cc2c1`, for which the melting point lay in the range of 201 to 202 °C.

Regarding `COc1ccn(-c2nc(C)c(C(=O)NCc3ccc(F)c(F)c3)s2)c(=O)c1`, the melting point lay in the range of 183 to 185 °C.

Molecule `CN(C(=O)c1nnc2ccccc2c1O)c1ccc(Cl)cc1` came in with a melting point of 249 to 253 °C.

In the case of `CCOP(=O)(OCC)c1c(-c2c(OC)ccc3ccccc23)cc2c(c1-c1ccccc1)COC2`, the melting point was in the range of 123 to 125 °C.

The molecule `O=c1c2cnc3cc4c(cc3c2sn1CCc1ccccn1)OCO4` gave a melting point of 200 to 201 °C.

As to `CCOC(=O)c1nnc(Cc2c(F)cccc2F)n1C`, the melting point was 127 to 128 °C.

The molecule `CC(C)(C)OC(=O)N1CCC(c2ccc3oc(-c4ccc(C(F)(F)F)cc4)nc3c2)CC1` had a melting point of 161 to 164 °C.

Molecule `CN1CCCC(C(=O)N2CCC(c3[nH]nc4c3C(=O)c3c(NC(=O)NN5CCOCC5)cccc3-4)CC2)C1` (stereo not drawn) showed a melting point of 158 to 160 °C.

`COc1ccc2[nH]c(S(=O)Cc3ncc(F)c(N4CCOCC4)c3C)nc2c1` (stereo not drawn): the melting point was 158 to 160 °C.

`N#CC(=Cc1ccc(O)c(O)c1)C(=O)Nc1ccc(Br)cc1` displayed a melting point of 277 to 278 °C.

In turn, `COc1cc(OC)c(C(=O)CCCCCl)cc1NC(=O)Nc1ccc(C(F)(F)F)cc1` gave a melting point of 154 to 156 °C.

For `O=C1c2ccccc2-c2c1c1ccccc1c(=O)n2CCCCCCNS(=O)(=O)c1ccccc1`, the melting point was 150 to 152 °C.

The molecule `CCOC(=O)COc1cc(-n2nc(C)c(Cl)c2C)c(F)cc1Cl` returned a melting point of 101 to 104 °C.

Consider `CCC(OC(=O)CCNC(=O)OC(C)(C)C)c1cc2n(c(=O)c1C)Cc1cc3ccccc3nc1-2` (stereo not drawn), for which the melting point fell in the range of 155 to 158 °C.

Molecule `CC(=O)COc1cc2oc(=O)cc(C)c2cc1C` gave a melting point of 190 °C.

Molecule `COc1ccc(S(=O)(=O)C(CC(=O)NO)Cc2ccc(Oc3ccccc3)cc2)cc1` (stereo not drawn) registered a melting point of 65 to 70 °C.

For the molecule `CC(=O)Nc1ccc(SSc2ccc(NC(C)=O)cc2C(=O)NC(CC(C)C)C(=O)O)c(C(=O)NC(CC(C)C)C(=O)O)c1` (stereo not drawn), the melting point lay within 241 to 242 °C.

Turning to `CCOC(=O)CSc1nc(Cl)cc(-c2ccccc2)n1`, the melting point is 82 to 84 °C.

`O=C(O)Cc1c(C(=O)c2cc(Cl)ccn2)[nH]c2ccc(Cl)cc12`: the melting point is 243 to 244 °C.

As for `C=Cc1cccc(C(OS(=O)(=O)c2ccc(Cl)cc2)(C(F)(F)F)C(F)(F)F)c1`, the melting point came to 70 °C.

Take `O=C(c1ccccc1)c1cncc(Br)c1`: the melting point fell in the range of 66 to 68 °C.

`Cc1cnc(CNC(=O)c2ccnc(N3CCN(Cc4ccc(F)cc4)C3=O)c2)cn1` had a melting point of 169 to 171 °C.

In the case of `CC(C)(C)c1cc(C(=NNc2ccccc2)c2ccccc2)cc(C(C)(C)C)c1O`, the melting point lay within 144 to 145 °C.

In turn, `O=C(NC(=O)N(SN1CCCCC1=O)c1ccc(Oc2ccc(C(F)(F)F)cc2Cl)cc1F)c1c(F)cccc1F` returned a melting point of 139 to 141 °C.

`CC1(C)C(=O)NC(=O)c2c1ccc1nc(Nc3c(Cl)cccc3Cl)sc21` displayed a melting point of over 300 °C.

Turning to `CCOC(=O)Cc1c(C)n(Cc2cccc(O)c2)c2ccc(OC)cc12`, the melting point fell in the range of 114 to 116 °C.

In turn, `Nc1nc(N)nc(-c2ccc(NS(=O)(=O)c3cc(Cl)ccc3Cl)cc2)n1` returned a melting point of 230 to 233 °C.

The molecule `COc1cc(C)nc2nc(S(=O)(=O)Nc3c(Cl)cccc3Cl)nn12` yielded a melting point of 214 to 215 °C.

Turning to `Cc1cc([N+](=O)[O-])c2[nH]ccc(=O)c2c1`, the melting point lay in the range of 209 to 212 °C.

`COC(=O)c1ccc(C(=O)NN)cn1` gave a melting point of 177 to 180 °C.

As for `CC(C)(Cc1ccc(Cl)cn1)C(N)=O`, the melting point lay within 51.4 to 53.4 °C.

Regarding `COC(=O)C1=C(C#N)NC(C)=C(P2(=O)OCCCO2)C1c1ccccc1[N+](=O)[O-]` (stereo not drawn), the melting point is 228 to 229 °C.

In turn, `CCN(CC)Cc1ccc(C(N)=O)o1` registered a melting point of 164 to 165 °C.

Molecule `CCCn1c(=S)[nH]c2ccc(I)cc2c1=O` displayed a melting point of over 200 °C.

The molecule `Cc1noc(NS(=O)(=O)c2ccc(-c3cccs3)s2)c1Br` registered a melting point of 210 °C.

On to `CCCCCCCc1cnc([C@H]2CC[C@H](CCCCC)CC2)nc1`, for which the melting point was found to be 22 °C.

In turn, `NC(=O)CNC(=O)c1cccc(-c2cccc3cc(Cc4cc(F)cc(Cl)c4)sc23)n1` yielded a melting point of 200 to 201 °C.

Turning to `CC(=O)NC1=C(N)C(=O)c2ccccc2C1=O`, the melting point is 233 to 234 °C.

`O=C1OC(c2cccc(C(F)(F)F)c2)=NC1=Cc1cccs1`: the melting point fell in the range of 200 to 202 °C.

Consider `CCC(CC)n1nc2c(C(F)(F)F)cccc2c1-c1ccc(OC)cc1OC`, for which the melting point fell in the range of 138 to 139 °C.

With `CC(C)Oc1cc(CCCNC(=O)NS(=O)(=O)c2ccccc2)n(Cc2ccc(Cl)cc2Cl)n1`, the melting point amounted to 149 °C.

With `CC(C)CN(C=Nc1nnnc2c1ncn2C1CC(O)C(CO)O1)CC(C)C` (stereo not drawn), the melting point was 138 to 140 °C.

`CCCOC(=NNC(=O)OC)OCCC` registered a melting point of 38.1 to 38.3 °C.

`Cc1ccc(Nc2cc(C)nc(-n3nc(C)cc3C)n2)cc1`: the melting point is 135 to 138 °C.

`COc1ccc(CC(=O)NC(NC(=NC#N)Nc2ccccc2C)C(C)(C)C)cc1OC` (stereo not drawn): the melting point is 156 to 157 °C.

The molecule `CC(=O)NCCNc1ccc(NCCNC(C)=O)c2c1C(=O)c1c(O)ccc(O)c1C2=O` registered a melting point of 273 to 274 °C.

As for `O=C1CCC(N2Cc3c(CNC(=O)Nc4cccc(Cl)c4)cccc3C2=O)C(=O)N1` (stereo not drawn), the melting point is 250 to 252 °C.

Take `CC(C)c1ccc(CCNc2ncnc3c(F)cccc23)cc1`: the melting point fell in the range of 170 to 172 °C.

`Cc1oc(-c2ccccc2)nc1COc1ccc(/C=C/CO)cc1`: the melting point was in the range of 134 to 135 °C.

On to `N#Cc1cnn2c1NCCC2`, for which the melting point fell in the range of 206 to 207 °C.

In turn, `CCOC(=O)c1cccc(Cn2cnc3cnccc32)c1` registered a melting point of 119 to 120 °C.

As for `O=C(O)CCOc1ccc2c(c1)CCO2`, the melting point lay within 131 to 132 °C.

For `COc1cccc(CN(CC(=O)O)Cc2ccccc2)c1`, the melting point was in the range of 177 to 179 °C.

For the molecule `COC(=O)c1cc(NC(=O)COc2ccccc2)c2cc(Cc3ccc(F)cc3)cnc2c1O`, the melting point fell in the range of 172 to 173 °C.

On to `CCOC(=O)/C(=C\Nc1ccc(OC)c(OC)c1)c1ccc(OC)cc1`, for which the melting point lay in the range of 88 to 89 °C.

`Clc1ccc(CNc2nc(Cl)cc(Cl)n2)cc1`: the melting point was 154 to 157 °C.

On to `O=C1CCCC(c2ccc(Cl)cc2)N1c1ccc(O)cc1` (stereo not drawn), for which the melting point is 209 to 210 °C.

The molecule `O=c1c2ccccc2ncn1NC(=S)Nc1ccc(Br)cc1` had a melting point of 189 to 190 °C.

Regarding `Cc1ccc(NC(=O)c2ccc(C(=O)Nc3ccccc3N)s2)cc1Nc1nc(-c2cccnc2)cs1`, the melting point amounted to 242 °C.

Turning to `COc1ccccc1N1CCN(CCCCOc2ccc(-c3cn4ccccc4n3)cc2)CC1`, the melting point is 144 to 145 °C.

With `CCCCCCCCc1ccc(CCC2(NC(=O)OC(C)(C)C)COC(C)(C)OC2)cc1`, the melting point was in the range of 120 to 124 °C.

As usually defined, the melting point is the temperature of the solid-liquid transition.

The values are drawn from a melting point compilation (Tetko et al.; mined from patent text by program, amines drawn as free bases though some values may be those of a salt).
